Reference: US20200246308A1, “SYNERGISTIC COMBINATIONS OF UROLITHINS A AND B FOR IMPROVING COGNITIVE CAPACITY OR COGNITIVE FUNCTION” (Natreon, Inc., priority 2018, published 2020)
“Also recorded” adds a separate entry of the source.

Experiments:
[1] = target: T1, acetylcholinesterase activity in HIP homogenate (Rattus norvegicus, UniProt P37136); test: Acetylcholinesterase activity in hippocampal tissue, Amplex Red kit (Example 9C); assay type: in vivo, Male Wistar rats; details: p.o. 7 days: B 50, A 50, Donepezil 3, B:A 10:50 and 50:50 mg/kg, Shilajit 25 mg/kg b.i.d
T1 construct: The acetylcholinesterase activity in brain tissues was measured using Amplex red assay kit; from tissue; host or cells: rat hippocampus (brain tissue homogenate supernatant)
T1 sequence (P37136 32-614): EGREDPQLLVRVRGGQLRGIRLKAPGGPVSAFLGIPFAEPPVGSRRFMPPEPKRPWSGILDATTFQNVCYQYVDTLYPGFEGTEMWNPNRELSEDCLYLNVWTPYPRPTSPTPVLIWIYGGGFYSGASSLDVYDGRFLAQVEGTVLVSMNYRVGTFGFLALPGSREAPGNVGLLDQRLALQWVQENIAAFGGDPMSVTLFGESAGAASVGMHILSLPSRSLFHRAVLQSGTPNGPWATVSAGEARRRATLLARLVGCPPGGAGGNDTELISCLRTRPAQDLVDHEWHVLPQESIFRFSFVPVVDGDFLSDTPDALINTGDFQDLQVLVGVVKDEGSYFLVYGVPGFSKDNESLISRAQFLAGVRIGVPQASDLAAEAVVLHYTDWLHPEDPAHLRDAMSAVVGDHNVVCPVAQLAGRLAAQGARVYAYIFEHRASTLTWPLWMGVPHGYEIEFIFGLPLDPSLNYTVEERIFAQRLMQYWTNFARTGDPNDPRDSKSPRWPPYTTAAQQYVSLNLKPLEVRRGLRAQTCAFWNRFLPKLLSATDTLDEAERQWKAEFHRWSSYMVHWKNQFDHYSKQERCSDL
Protocol: Drug solution was freshly prepared in 0.3% CMC and administered by oral gavage once a day, for a period of 7 days. Briefly, the whole experiment was conducted for 8 days. Scopolamine (1 mg/kg), a muscarinic receptor antagonist, was dissolved in normal saline (0.9% NaCl) and administered intraperitoneally 1 h after drugs administration on seventh day.
Sample preparation: The animals were killed by decapitation and the brain tissues were dissected out in ice-cold conditions and stored at −80° C. until use. Tissue was homogenized in 1.0 ml of 0.1M perchloric acid with a Potter-Elvehjem homogenizer. The homogenate was kept in the polypropylene tubes for 15 min after which 40 μl of 4M potassium acetate was added to adjust the pH to 4.0 followed by centrifugation for 15 min at 4000×g. Supernatant was used to estimate acetylcholine and AChE activities.
Spectrofluorometric assay of acetylcholinesterase activity: The acetylcholinesterase activity in brain tissues was measured using Amplex red assay kit (Molecular Probes, Inc., USA). An acetylcholinesterase standard curve was used in each experiment. Briefly, Begin the reactions by adding 0.1 ml of control (10 μM H2O2) and tissue homogenate were taken in two separate polypropylene tubes and then 0.1 ml working solution of 400 μM Amplex Red reagent containing 2 U/mL HRP, 0.2 U/mL choline oxidase and 100 μM acetylcholine were added to each tube. After incubation for 45 min, the fluorescence was recorded with the help of spectrofluorometer at 530 nm excitation and 590 nm emission wavelengths.
Statistical analyses: The results were expressed as means±Standard Error mean (SEM). The intergroup variation was measured by one-way ANOVA followed by Student-Newman-Keuls test. […] Statistical analysis was done by using Graph Pad prism version 5 (San Diego, Calif.). A level of p<0.05 was accepted as statistically significant.

[2] = target: T2, AchE from Electrophorus electricus (electric eel) (Electrophorus electricus, UniProt O42275); test: In-vitro AChE inhibition assay, Ellman method; assay type: biochemical
T2 construct: purchased Sigma Aldrich
Excerpt: AchE from Electrophorus electricus (electric eel) CAS: 9000-81-1 was procured from Sigma Aldrich (St. Louis, Mo., USA). 5,5′-dithiobis (2-nitrobenzoic acid) (DTNB-Ellman's reagent) and acetylcholine iodide, (AChI) were procured from local suppliers (HiMedia, Pvt. Ltd., New Delhi, India). All other chemicals and reagents were available commercially from local suppliers (Merck Pvt. Ltd., New Delhi and HiMedia Laboratories Pvt Ltd., New Delhi, India) and were of analytical grade.
The procedure described by Ellman et al. was used after some modification for AChE inhibition assay. Acetylthiocholine iodide (ATCI), 5,5′-dithiobis (2-nitrobenzoic acid) (DTNB-Ellman's reagent) were purchased from Himedia. Donepezil was used as positive control. Tris-HCl buffer (pH 8) was used to perform the in-vitro assay. […] 50 μL of AChE (0.22 U mL^−1) and 10 μL of test or standard compounds were incubated in 96 well plate for 30 min. at room temperature (See, Table 3).
(§1) Further, substrate i.e. ATCI (15 mM, 30 μL) was added and it was incubated for additional 30 min. Finally 160 μL (1.5 mM) of DTNB was added and the absorbance was recorded at 415 nm using Epoch microplate reader (BioTek). The IC50 value was calculated using absorbance obtained from the test and standard compounds. The assay was performed in triplicate and in three independent runs.
Percentage inhibition=(Control−Test)/Control×100 Equation (1)
50 μL of AChE (0.22 U mL^−1) and 10 μL of test or standard compounds were incubated in 96 well plate for 30 min. at room temperature.
as §1, with “(see Equation 1).” for “and in three independent runs.”

[3] = Table 2, B:A ratios from mg/ml solutions
[4] = Table 5, Shilajit:B:A combinations from mg/ml solutions

T2 sequence (O42275 24-633): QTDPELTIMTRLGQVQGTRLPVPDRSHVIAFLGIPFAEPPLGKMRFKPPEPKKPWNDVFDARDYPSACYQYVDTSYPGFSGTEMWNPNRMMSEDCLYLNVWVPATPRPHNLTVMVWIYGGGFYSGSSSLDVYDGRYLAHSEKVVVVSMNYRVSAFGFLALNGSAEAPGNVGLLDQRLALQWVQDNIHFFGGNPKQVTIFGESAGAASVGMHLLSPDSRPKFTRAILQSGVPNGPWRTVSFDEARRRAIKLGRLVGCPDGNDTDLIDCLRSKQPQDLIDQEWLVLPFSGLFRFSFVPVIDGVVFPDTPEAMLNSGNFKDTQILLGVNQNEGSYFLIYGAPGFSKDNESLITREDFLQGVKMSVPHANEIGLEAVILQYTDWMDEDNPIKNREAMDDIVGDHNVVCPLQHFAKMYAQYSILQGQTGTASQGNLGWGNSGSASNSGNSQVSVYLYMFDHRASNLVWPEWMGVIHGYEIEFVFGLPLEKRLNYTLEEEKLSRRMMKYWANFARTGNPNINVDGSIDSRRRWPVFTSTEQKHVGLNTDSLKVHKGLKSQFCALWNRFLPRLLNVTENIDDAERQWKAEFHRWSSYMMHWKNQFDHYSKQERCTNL

| SMILES | Scopolamine-induced increase in acetylcholinesterase activity in HIP homogenate ([1]; listed as 3,8-(OH)2-DBP (A)) | IC50 [2, 3] | IC50 [2, 4] | Scopolamine-induced increase in acetylcholinesterase activity in HIP homogenate [1] |
| --- | --- | --- | --- | --- |
| O=c1oc2cc(O)ccc2c2ccc(O)cc12 [Urolithin A, 3,8-dihydroxy-dibenzo-alpha-pyrone] | attenuated the scopolamine induced increase acetylcholinesterase activity; also recorded: less effective than 3-OH-DBP (B) 50 mg/kg | 0.1793 ± 0.0092 µg/mL | 0.1793 ± 0.0092 µg/mL | – |
| O=c1oc2cc(O)ccc2c2ccccc12 [Urolithin B, 3-hydroxy-dibenzo-alpha-pyrone] | – | 0.1430 ± 0.0057 µg/mL | 0.1430 ± 0.0057 µg/mL | attenuated the scopolamine induced increase acetylcholinesterase activity |
